The results in this text go back to the supplement of paper PMC4862054.

Common to all, as to details: incubation time: 72 h
In test [1] the test system is BT-549. Nature of the test: normalised response (% of control), CellTiter-Glo; higher = more viable cells (100 = DMSO, 0 = benzethonium chloride kill control). The procedure, abridged:
(§1)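 In 384-well plates holding compound at 5 concentrations in 10-fold steps over a 10,000-fold range specific to each compound, breast cancer cell lines were seeded as 20 µl suspension and incubated 72 h. CellTox Green fluorescence was measured at 485/520 nm, after which CellTiter-Glo luminescence was measured following 10 min at room temperature. Plate signals were normalised to 0.1 % DMSO (100) and a positive kill control (0), and each value is the normalised signal at a single concentration.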
A general note: ATP-based viability assays read luminescence as a measure of living cells.

Test [2] has as its system CAL-85-1. The test is described as above. The procedure, abridged:
as §1

In test [3] the test system is MCF-10A. The description is as above. In a few lines: as §1
Test [4] has as its system BT-474. Nature of the test: normalised viability (% of control), CellTiter-Blue; higher = more viable cells (about 100 = DMSO control). In a few lines:
(§2)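 After 72 h on compound-loaded 384-well plates, breast cancer cell lines received 2.5 µl CellTiter-Blue reagent for 2 h at 37 °C. Fluorescence at 560/590 nm was scaled per plate so that vehicle was 100 and a positive kill control was 0. The value stands for normalised viability at a single listed concentration of the series.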

For test [5], the system named is BT-549. Described as above. The procedure, abridged: as §2
For test [6], the system named is CAL-120. Described as above. The procedure, abridged: as §2
Test [7] deals with CAL-148. The test is described as above. The procedure, abridged: as §2
The subject of test [8] is CAL-51. Described as above. In a few lines: as §2
The test system of test [9] is CAL-85-1. Described as above. In a few lines:
as §2

Test [10] has as its system DU-4475. The test is described as above. In a few lines: as §2
The test system of test [11] is HCC1143. The description is as above. In a few lines:
as §2

The subject of test [12] is HCC1599. The description is as above. The procedure, abridged:
as §2

Test [13] relates to HCC1937. The description is as above. In a few lines:
as §2

Test [14] has as its system HDQ-P1. The description is as above. The procedure, abridged:
as §2

Test [15] deals with Hs578T. Described as above. In a few lines:
as §2

Test [16] concerns MDA-MB-231. The test is described as above. The procedure, abridged:
as §2

Test [17] relates to MDA-MB-436. Described as above. In a few lines:
as §2

The test system of test [18] is MDA-MB-453. Described as above. In a few lines:
as §2

In test [19] the test system is MDA-MB-468. Described as above. In a few lines: as §2
The subject of test [20] is MFM-223. Described as above. In a few lines:
as §2

In test [21] the test system is SK-BR-3. The description is as above. In a few lines: as §2

Turning to `Clc1ccc(C(c2ccccc2Cl)C(Cl)Cl)cc1` (stereo unspecified) [Mitotane] (1000 nM), the figures for the normalised response in test [1], in test [2] and in test [3] were 100%, 101% and 91.7%, respectively.
For `COc1cccc2cc(-c3nc([C@H]4CC[C@H](C(=O)O)CC4)n4ncnc(N)c34)[nH]c12` [OSI-027] (1000 nM), in that order: 74.6%, 76.2% and 87%.
Turning to `OC[C@H]1O[C@@H](n2cnc3c2N=CNC[C@H]3O)C[C@@H]1O` [Pentostatin], the normalised viability in test [4] (10 nM) stood at 116%; in [4] (1000 nM), 119%; in test [4] (10000 nM), 111%; in test [5] (10 nM), 100%; in test [5] (1000 nM) it was 98.1%; in test [5] (10000 nM), 85.3%. Besides, the normalised viability in test [6] (10 nM) was 115%; in test [6] (1000 nM) it was 103%; in test [6] (10000 nM), 94.4%; in [7] (3 nM) it was 116%; in [7] (30 nM) it was 115%; in [7] (100 nM) it was 110%. In addition, the normalised viability in [8] (3 nM) was 90.1%; in test [8] (30 nM), 85.4%; in test [8] (100 nM), 84.2%; in test [9] (3 nM), 106%; in [9] (30 nM), 96.2%; in [9] (100 nM), 104%. The normalised viability was found to be 93.4% in [10] (3 nM); 92.7% in test [10] (30 nM); 95% in test [10] (100 nM); 114% in test [11] (10 nM); 103% in test [11] (1000 nM); 102% in [11] (10000 nM). Also, the normalised viability came out at 88.3% in [12] (10 nM); 92.3% in [12] (1000 nM); 93.4% in test [12] (10000 nM); 80.3% in [13] (10 nM); 91.8% in [13] (1000 nM); 84.2% in test [13] (10000 nM). In addition, the normalised viability in test [14] (3 nM) amounted to 118%; in test [14] (30 nM) it was 99%; in test [14] (100 nM), 100%; in test [15] (10 nM), 111%; in [15] (1000 nM), 101%; in test [15] (10000 nM) it was 105%. Also, the normalised viability in [16] (10 nM) is 98.5%; in test [16] (1000 nM) it was 102%; in [16] (10000 nM), 108%; in test [17] (10 nM) it was 93.4%; in test [17] (1000 nM), 88.4%; in [17] (10000 nM), 89.5%. The normalised viability in test [18] (3 nM) worked out at 105%; in test [18] (30 nM), 97.7%; in test [18] (100 nM), 94.8%; in [19] (10 nM), 115%; in test [19] (1000 nM), 99.4%; in [19] (10000 nM), 104%. Moreover, the normalised viability was 93.5% in test [20] (10 nM); 93% in [20] (1000 nM); 98.1% in test [20] (10000 nM); 108% in test [21] (10 nM); 104% in [21] (1000 nM); 116% in [21] (10000 nM).
As for `OC[C@H]1O[C@@H](n2cnc3c2N=CNC[C@H]3O)C[C@@H]1O` [Pentostatin] (1000 nM), the results for the normalised response in [1], in [2] and in test [3] were 95.7%, 100% and 105%, respectively.
Consider `N#CC[C@H](C1CCCC1)n1cc(-c2ncnc3[nH]ccc23)cn1` [Ruxolitinib] (1000 nM), for which the normalised response was determined as 96.3% in test [1], 95.8% in [2] and 80.6% in test [3].
For `C=CC[C@@H]1/C=C(\C)C[C@H](C)C[C@H](OC)[C@H]2O[C@@](O)(C(=O)C(=O)N3CCCC[C@H]3C(=O)O[C@H](/C(C)=C/[C@@H]3CC[C@@H](O)[C@H](OC)C3)[C@H](C)[C@@H](O)CC1=O)[C@H](C)C[C@@H]2OC` [Tacrolimus] (1000 nM), in that order: 102%, 95.1% and 102%.
Consider `C=CCNC1=C2C[C@@H](C)C[C@H](OC)[C@H](O)[C@@H](C)/C=C(\C)[C@H](OC(N)=O)[C@@H](OC)/C=C\C=C(/C)C(=O)NC(=CC1=O)C2=O` [Tanespimycin] (1000 nM), for which the figures for the normalised response in test [1], in test [2] and in [3] were 33.4%, 27.9% and 14.6%, respectively.
Regarding `C[C@]1(c2nc3c(C(N)=O)cccc3[nH]2)CCCN1` [Veliparib] (1000 nM), the normalised response in [1] was 103%; in test [2] it was 115%; in test [3], 91.3%.
For the molecule `CC[C@]1(O)C[C@@H]2CN(CCc3c([nH]c4ccccc34)[C@@](C(=O)OC)(c3cc4c(cc3OC)N(C)[C@H]3[C@@](O)(C(=O)OC)[C@H](OC(C)=O)[C@]5(CC)C=CCN6CC[C@]43[C@@H]65)C2)C1` [Vinblastine] (100 nM), the normalised response in test [1] came out at 35.6%; in [2], 37.2%; in [3], 72.4%.
As to `CS(=O)(=O)c1ccc(C(=O)Nc2ccc(Cl)c(-c3ccccn3)c2)c(Cl)c1` [Vismodegib] (1000 nM), the normalised response in [1] was 101%; in test [2] it was 103%; in test [3], 94.9%.
